Converted amounts (≈) assume the structure as drawn.

These results are taken from patent US20170362388A1, “Disulfide Polymers and Methods of Use” (The Brigham and Women's Hospital, Inc., priority 2014, published 2017).

In one data set the test system is Hela and DU145 cells. The data set can be described thus: In vitro anticancer performance of docetaxel-loaded NPs, alamar blue. In kind it is cell-based. Here is the method:
Hela, MCF-7, A549, and DU145 cells were used to evaluate in vitro anticancer performance of docetaxel-loaded NPs (Cys-OMe-8/Cys-8E NPs with 10 wt % docetaxel loaded with docetaxel concentration ranging from 1 ng/ml to 500 ng/mL). Hela, MCF-7, A549, and DU145 cells were used. Cells (5,000 cells/well) were seeded in 96-well plates the day before use, and cultured according to recommendations from ATCC. Cells were treated with different concentrations of free docetaxel or docetaxel loaded NP for 4 h or 48 h (N=5). For the 4 h experiment, treated cells were washed twice with PBS buffer and the plate was incubated for another 44 h after replacement of fresh medium. Cell viability at 48 h was determined by alamar blue assay. As a control, the polymer cytotoxicity on Hela cells was ascertained using empty NPs.
In FIGS. 24B and 24D: DU145 cells were treated with docetaxel-loaded NPs for 4 h and 48 h, respectively.
The Alamar blue assay was used to evaluate the NP cytotoxicity. Briefly, 10% 0.1 mg/mL alamar blue was first added into each well and the plate was incubated for another 2 h. Then the fluorescence intensity was measured by a microplate reader (excitation/emission=530 nm/590 nm).

Data set [1] deals with A549 Human Lung Carcinoma Xenograft. The data set can be described thus: Antitumor efficacy of docetaxel-loaded NPs. The settings on record: 5 mg/kg docetaxel equivalent, iv tail vein, two injections. In kind it is in vivo, mice. Here is the method: A549 cell suspension (100 μL, equivalent to 5×10^6 cells) was first mixed with 100 μL Matrigel (BD scientific Co.), then subcutaneously injected into the right flank of 5-week-old female athymic nude mice (Charles River). The treatment was initiated on the 9th day, when solid tumor reached ˜100 mm^3. Tumor-bearing mice were divided into 4 groups and injected […] on the 9th and 23rd days after tumor inoculation with: (i) 1× PBS (ii) docetaxel 5 mg/kg (MTD), (iii) Cys-OMe-8/Cys-8E NPs at a docetaxel equivalent dose of 5 mg/kg (MTD), (iv) Cys-OMe-8/Cys-8E NPs at a docetaxel equivalent dose of 10 mg/kg. Control or drugs were administered by intravenous injection in the lateral tail vein (10 μL per g of body weight). Tumor dimension and body weight were recorded every other day. Tumor volume was calculated as follows: Volume [mm^3]=[…]. Mice were regularly monitored (every other day) for physical performance and were euthanized upon exceeding 15% weight loss, over 1500 mm^3 volume or if tumor ulceration was observed. Prior to the experiment, the maximum tolerated dose (MTD) of free docetaxel was established in normal Balb/c mice at 5 mg/kg. Tumor volumes at Day 30 were compared using the ANOVA analysis.
FIG. 30 is a plot of the antitumor effects of docetaxel-loaded Cys-OMe-8/Cys-8E nanoparticles in A549 tumor bearing mice. […]

The next data set is described as follows: Maximum tolerated dose. The settings on record: mouse, in vivo; normal Balb/c mice.

A word on the IC50: it is the concentration that gives 50% inhibition. Lower therefore signals higher potency. In general, MTD refers to the highest dose tested that stayed within the study's limit of toxicity. High values mean better tolerability, low ones poorer tolerability. As to `CC(=O)O[C@@]12CO[C@@H]1C[C@H](O)[C@@]1(C)C(=O)[C@H](O)C3=C(C)[C@@H](OC(=O)[C@H](O)[C@@H](NC(=O)OC(C)(C)C)c4ccccc4)C[C@@](O)([C@@H](OC(=O)c4ccccc4)[C@H]21)C3(C)C` [docetaxel], the half-inhibitory concentration (IC50) with Hela and DU145 cells (4 h treatment, viability at 48 h) was roughly 0.1 µg/mL (≈ 0.124 µM); with Hela and DU145 cells (48 h treatment), roughly 0.005 µg/mL (≈ 0.00619 µM). Also, the Tumor inhibition result in data set [1] is listed as “only limited tumor inhibition”. Besides, the maximal tolerated dose (MTD) in “Maximum tolerated dose” is 5 mg/kg.
